Laboratory results from patent US20250059159A1, “PLPRO INHIBITORS” (SHANGHAI SYNERGY PHARMACEUTICAL SCIENCES CO., LTD., priority 2021, published 2025).

Biological target: SARS-CoV-2 PLpro (Severe acute respiratory syndrome coronavirus 2 (2019-nCoV) (SARS-CoV-2), UniProt P0DTD1)
Assay: PLpro enzymatic inhibition assay (IC50 value determination)
Type: biochemical
Settings: 60 min preincubation for covalent inhibitors, 10 min for non-covalent, read-out: Inhibition of SARS-CoV-2 PLpro IC50 range

SMILES	IC50
C[C@H](c1cccc2ccccc12)N1CCC(N(CC(=O)NCC(=O)NCC=O)S(C)(=O)=O)CC1 [Compound 64, (R)-2-(N-(1-(1-(naphthalen-1-yl)ethyl)piperidin-4-yl)methylsulfonamido)-N-(2-oxo-2-((2-oxoethyl)amino)ethyl)acetamide]	< 100 nM
COC(=O)/C=C/CNC(=O)CNC(=O)CN(/C=C/C(=O)C(F)(F)F)C1CCN([C@H](C)c2cccc3ccccc23)CC1 [Compound 67, methyl (E)-4-(2-(2-((1-((R)-1-(naphthalen-1-yl)ethyl)piperidin-4-yl)((E)-4,4,4-trifluoro-3-oxobut-1-en-1-yl)amino)acetamido)acetamido)but-2-enoate]	< 100 nM
C#CCNC(=O)CCC(=O)CN(C1CCN([C@H](C)c2cccc3ccccc23)CC1)S(C)(=O)=O [Compound 81, (R)-5-(N-(1-(1-(naphthalen-1-yl)ethyl)piperidin-4-yl)methylsulfonamido)-4-oxo-N-(prop-2-yn-1-yl)pentanamide]	1000 to 10000 nM
C#CCNC(=O)CNC(=O)CN(C1CCN(C(C)c2cccc3cccnc23)CC1)S(C)(=O)=O (stereo not shown) [Compound 82, N-(2-oxo-2-(prop-2-yn-1-ylamino)ethyl)-2-(N-(1-(1-(quinolin-8-yl)ethyl)piperidin-4-yl)methylsulfonamido)acetamide]	100 to 1000 nM
C#CCNC(=O)CNC(=O)CN(C1CCN(C(C)c2c(F)ccc3ccccc23)CC1)S(C)(=O)=O (stereo not shown) [Compound 83, 2-(N-(1-(1-(2-fluoronaphthalen-1-yl)ethyl)piperidin-4-yl)methylsulfonamido)-N-(2-oxo-2-(prop-2-yn-1-ylamino)ethyl)acetamide]	100 to 1000 nM
C#CCNC(=O)CNC(=O)CN(C1CCN(C(C)c2cccc3ccc(Cl)cc23)CC1)S(C)(=O)=O (stereo not shown) [Compound 84, 2-(N-(1-(1-(7-chloronaphthalen-1-yl)ethyl)piperidin-4-yl)methylsulfonamido)-N-(2-oxo-2-(prop-2-yn-1-ylamino)ethyl)acetamide]	< 100 nM
C#CCNC(=O)CNC(=O)CN(C1CCN(C(C)c2ccnc3ccccc23)CC1)S(C)(=O)=O (stereo not shown) [Compound 85, N-(2-oxo-2-(prop-2-yn-1-ylamino)ethyl)-2-(N-(1-(1-(quinolin-4-yl)ethyl)piperidin-4-yl)methylsulfonamido)acetamide]	100 to 1000 nM
C#CCNC(=O)CNC(=O)CN(C1CCN([C@@H](C)c2cccc3ccccc23)CC1)S(C)(=O)=O [Compound 89, (S)-2-(N-(1-(1-(naphthalen-1-yl)ethyl)piperidin-4-yl)methylsulfonamido)-N-(2-oxo-2-(prop-2-yn-1-ylamino)ethyl)acetamide]	< 100 nM
C#CCNC(=O)CNC(=O)CN(C1CCN([C@@H](C)c2cccc3ccccc23)CC1)S(=O)(=O)C1CC1 [Compound 90, (S)-2-(N-(1-(1-(naphthalen-1-yl)ethyl)piperidin-4-yl)cyclopropanesulfonamido)-N-(2-oxo-2-(prop-2-yn-1-ylamino)ethyl)acetamide]	< 100 nM
C#CCNC(=O)CNC(=O)CN(C1CCN([C@@H](C)c2cccc3ccccc23)CC1)S(=O)(=O)N1CCCC1 [Compound 91, (S)-2-(N-(1-(1-(naphthalen-1-yl)ethyl)piperidin-4-yl)pyrrolidine-1-sulfonamido)-N-(2-oxo-2-(prop-2-yn-1-ylamino)ethyl)acetamide]	< 100 nM
C#CCNC(=O)CNC(=O)[C@@H]1CNS(=O)(=O)N1C1CCN([C@H](C)c2cccc3ccccc23)CC1 [Compound 92, (S)-2-(1-((R)-1-(naphthalen-1-yl)ethyl)piperidin-4-yl)-N-(2-oxo-2-(prop-2-yn-1-ylamino)ethyl)-1,2,5-thiadiazolidine-3-carboxamide 1,1-dioxide 2,2,2-trifluoroacetate]	1000 to 10000 nM
C#CCNC(=O)CNC(=O)CN(C1CCN([C@H](C)c2cccc3ccccc23)CC1F)S(C)(=O)=O (stereo partly drawn) [Compound 93, 2-(N-(3-fluoro-1-((R)-1-(naphthalen-1-yl)ethyl)piperidin-4-yl)methylsulfonamido)-N-(2-oxo-2-(prop-2-yn-1-ylamino)ethyl)acetamide]	100 to 1000 nM
C#CCNC(=O)CNC(=O)CN(C1CCN(C(C)c2cccc(Cl)c2Cl)CC1)S(C)(=O)=O (stereo not shown) [Compound 94, 2-(N-(1-(1-(2,3-dichlorophenyl)ethyl)piperidin-4-yl)methylsulfonamido)-N-(2-oxo-2-(prop-2-yn-1-ylamino)ethyl)acetamide]	100 to 1000 nM
C#CCNC(=O)CNC(=O)CN(C1CCN(C(C)c2ccc(OC)c3ccccc23)CC1)S(C)(=O)=O (stereo not shown) [Compound 96, 2-(N-(1-(1-(4-methoxynaphthalen-1-yl)ethyl)piperidin-4-yl)methylsulfonamido)-N-(2-oxo-2-(prop-2-yn-1-ylamino)ethyl)acetamide]	< 100 nM
C#CCNC(=O)CNC(=O)CN(C1CCN(C(C)c2cccc3ccccc23)CC1)S(C)(=O)=O (stereo not shown) [Compound 97, 2-(N-(1-(1-(naphthalen-1-yl)ethyl)piperidin-4-yl)methylsulfonamido)-N-(2-oxo-2-(prop-2-yn-1-ylamino)ethyl)acetamide]	< 100 nM
C#CCNC(=O)CNC(=O)CN(C1CCN(C(C)c2cccc3ccccc23)CC1)S(=O)(=O)N1CCCC1 (stereo not shown) [Compound 98, 2-(N-(1-(1-(naphthalen-1-yl)ethyl)piperidin-4-yl)pyrrolidine-1-sulfonamido)-N-(2-oxo-2-(prop-2-yn-1-ylamino)ethyl)acetamide]	< 100 nM

SMILES	IC50
C#CCNC(=O)CNC(=O)CN(C1CCN(C(C)c2cccc(C)c2C)CC1)S(C)(=O)=O (stereo not shown) [Compound 99, 2-(N-(1-(1-(2,3-dimethylphenyl)ethyl)piperidin-4-yl)methylsulfonamido)-N-(2-oxo-2-(prop-2-yn-1-ylamino)ethyl)acetamide]	< 100 nM
C#CCNC(=O)CNC(=O)CN(C1CCN(C(c2cccc3ccccc23)C(F)(F)F)CC1)S(C)(=O)=O (stereo not shown) [Compound 100, N-(2-oxo-2-(prop-2-yn-1-ylamino)ethyl)-2-(N-(1-(2,2,2-trifluoro-1-(naphthalen-1-yl)ethyl)piperidin-4-yl)methylsulfonamido)acetamide]	100 to 1000 nM
C#CCNC(=O)CNC(=O)CN(C1CCN(C(C)c2ccccc2Cl)CC1)S(C)(=O)=O (stereo not shown) [Compound 101, 2-(N-(1-(1-(2-chlorophenyl)ethyl)piperidin-4-yl)methylsulfonamido)-N-(2-oxo-2-(prop-2-yn-1-ylamino)ethyl)acetamide]	< 100 nM
C#CCNC(=O)CNC(=O)CN(C1CCN(C(C)c2ccccc2C(F)(F)F)CC1)S(C)(=O)=O (stereo not shown) [Compound 102, N-(2-oxo-2-(prop-2-yn-1-ylamino)ethyl)-2-(N-(1-(1-(2-(trifluoromethyl)phenyl)ethyl)piperidin-4-yl)methylsulfonamido)acetamide]	100 to 1000 nM
C#CCNC(=O)CNC(=O)CN(C1CCN(C(CC)c2cccc3ccccc23)CC1)S(C)(=O)=O (stereo not shown) [Compound 103, 2-(N-(1-(1-(naphthalen-1-yl)propyl)piperidin-4-yl)methylsulfonamido)-N-(2-oxo-2-(prop-2-yn-1-ylamino)ethyl)acetamide]	100 to 1000 nM
C#CCNC(=O)CNC(=O)CN(C1CCN(C2(c3cccc4ccccc34)CC2)CC1)S(C)(=O)=O [Compound 105, 2-(N-(1-(1-(naphthalen-1-yl)cyclopropyl)piperidin-4-yl)methylsulfonamido)-N-(2-oxo-2-(prop-2-yn-1-ylamino)ethyl)acetamide]	1000 to 10000 nM
C#CCNC(=O)CNC(=O)CN(C1CCN(C(C)c2cccc(Br)c2)CC1)S(C)(=O)=O (stereo not shown) [Compound 108, 2-(N-(1-(1-(3-bromophenyl)ethyl)piperidin-4-yl)methylsulfonamido)-N-(2-oxo-2-(prop-2-yn-1-ylamino)ethyl)acetamide]	100 to 1000 nM
C#CCNC(=O)CNC(=O)CN(C1CCN(C(C)c2ccc3ccccc3c2)CC1)S(C)(=O)=O (stereo not shown) [Compound 110, 2-(N-(1-(1-(naphthalen-2-yl)ethyl)piperidin-4-yl)methylsulfonamido)-N-(2-oxo-2-(prop-2-yn-1-ylamino)ethyl)acetamide]	< 100 nM
C#CCNC(=O)CNC(=O)CN(C1CCN(C(C)c2nccc3ccccc23)CC1)S(C)(=O)=O (stereo not shown) [Compound 111, 2-(N-(1-(1-(isoquinolin-1-yl)ethyl)piperidin-4-yl)methylsulfonamido)-N-(2-oxo-2-(prop-2-yn-1-ylamino)ethyl)acetamide]	100 to 1000 nM
C#CCNC(=O)CNC(=O)CN(C1CCN(C(C)c2cccc(-c3ccccc3)c2)CC1)S(C)(=O)=O (stereo not shown) [Compound 112, 2-(N-(1-(1-([1,1′-biphenyl]-3-yl)ethyl)piperidin-4-yl)methylsulfonamido)-N-(2-oxo-2-(prop-2-yn-1-ylamino)ethyl)acetamide]	100 to 1000 nM
C#CCNC(=O)CNC(=O)CN(C1CCN(C(C)c2ccccc2-c2ccccc2)CC1)S(C)(=O)=O (stereo not shown) [Compound 113, 2-(N-(1-(1-([1,1′-biphenyl]-2-yl)ethyl)piperidin-4-yl)methylsulfonamido)-N-(2-oxo-2-(prop-2-yn-1-ylamino)ethyl)acetamide]	100 to 1000 nM
CC(c1cccc2ccccc12)N1CCC(N(CC(=O)NCC(=O)NCC#N)S(C)(=O)=O)CC1 (stereo not shown) [Compound 114, N-(cyanomethyl)-2-(2-(N-(1-(1-(naphthalen-1-yl)ethyl)piperidin-4-yl)methylsulfonamido)acetamido)acetamide]	1000 to 10000 nM
C#CCNC(=O)CNC(=O)CN(C1CCN(C(C)c2cccc3ccccc23)CC1)S(=O)(=O)N1CCN(CC(=O)OCC)CC1 (stereo not shown) [Compound 115, ethyl 2-(4-(N-(1-(1-(naphthalen-1-yl)ethyl)piperidin-4-yl)-N-(2-oxo-2-((2-oxo-2-(prop-2-yn-1-ylamino)ethyl)amino)ethyl)sulfamoyl)piperazin-1-yl)acetate]	< 100 nM
C#CCNC(=O)CNC(=O)CN(C1CCN(C(C)c2cccc3ccccc23)CC1)S(=O)(=O)N1CCN(CC(=O)O)CC1 (stereo not shown) [Compound 117]	1000 to 10000 nM
C#CCNC(=O)CNC(=O)CN(C(=O)CCC(=O)O)C1CCN(C(C)c2cccc3ccccc23)CC1 (stereo not shown) [Compound 118, 4-((1-(1-(naphthalen-1-yl)ethyl)piperidin-4-yl)(2-oxo-2-((2-oxo-2-(prop-2-yn-1-ylamino)ethyl)amino)ethyl)amino)-4-oxobutanoic acid]	1000 to 10000 nM
